In ChEMBL document CHEMBL3351272, “Sequential synthesis of amino-1,4-naphthoquinone-appended triazoles and triazole-chromene hybrids and their antimycobacterial evaluation” (Eur J Med Chem, 2014):
pIC50: −log10 of the molar value.

What was measured:
[1] = test system: Mycobacterium tuberculosis; assay: Antimycobacterial activity against Mycobacterium tuberculosis H37Rv assessed as growth inhibition by microdilution AlamarBlue broth assay; type: functional, organism-based
[2] = test system: Mycobacterium tuberculosis; assay: Ratio of cycloserine IC50 to compound IC50 for Mycobacterium tuberculosis H37Rv assessed as growth inhibition by microdilution AlamarBlue broth assay; type: functional
[3] = test system: Mycobacterium tuberculosis; assay: Ratio of pyrimethamine IC50 to compound IC50 for Mycobacterium tuberculosis H37Rv assessed as growth inhibition by microdilution AlamarBlue broth assay; type: functional

Row | SMILES | pIC50 [1] | IC90 [1] [µM] | MIC [1] [µM] | Ratio IC50 [2] | Ratio IC50 [3]
1 | N#CCn1cc(CN(C2=CC(=O)c3ccccc3C2=O)c2ccccc2Cl)nn1 | 4.95 | 25.9 | 50 | – | –
2 | N#CCn1cc(CN(C2=CC(=O)c3ccccc3C2=O)c2ccc(F)cc2)nn1 | 5.55 | 6.13 | 15 | – | –
3 | COc1cccc(N(Cc2cn(CC#N)nn2)C2=CC(=O)c3ccccc3C2=O)c1 | 4.79 | 25.5 | 50 | – | –
4 | Cc1ccccc1N(Cc1cn(CC#N)nn1)C1=CC(=O)c2ccccc2C1=O | 4.97 | 19.8 | 50 | – | –
5 | N#CCn1cc(CN(C2=CC(=O)c3ccccc3C2=O)c2ccccc2)nn1 | 5.00 | 21.9 | 25 | – | –
6 | CCOC(=O)Cn1cc(CN(C2=CC(=O)c3ccccc3C2=O)c2ccc(C)cc2)nn1 | 4.92 | 27.9 | 50 | – | –
7 | CCOC(=O)Cn1cc(CN(C2=CC(=O)c3ccccc3C2=O)c2ccc(Br)cc2)nn1 | 5.07 | 16.4 | 25 | – | –
8 | CCOC(=O)Cn1cc(CN(C2=CC(=O)c3ccccc3C2=O)c2ccc(Cl)cc2)nn1 | 5.48 | 7.86 | 25 | – | –
9 | CCOC(=O)Cn1cc(CN(C2=CC(=O)c3ccccc3C2=O)c2ccc(F)cc2)nn1 | 4.76 | 36.5 | 50 | – | –
10 | CCOC(=O)Cn1cc(CN(C2=CC(=O)c3ccccc3C2=O)c2cccc(OC)c2)nn1 | 4.73 | 27.7 | 50 | – | –
11 | CCOC(=O)Cn1cc(CN(C2=CC(=O)c3ccccc3C2=O)c2ccccc2Cl)nn1 | 4.74 | 36.5 | 50 | – | –
12 | C=CCn1cc(CN(C2=CC(=O)c3ccccc3C2=O)c2ccc(Cl)cc2)nn1 | 4.67 | 45.1 | 50 | – | –
13 | C=CCn1cc(CN(C2=CC(=O)c3ccccc3C2=O)c2ccc(F)cc2)nn1 | 5.23 | 14.6 | 25 | – | –
14 | C=CCn1cc(CN(C2=CC(=O)c3ccccc3C2=O)c2cccc(OC)c2)nn1 | 4.60 | 36.4 | 50 | – | –
15 | C=CCn1cc(CN(C2=CC(=O)c3ccccc3C2=O)c2ccccc2C)nn1 | 4.82 | 34.3 | 50 | – | –
16 | C=CCn1cc(CN(C2=CC(=O)c3ccccc3C2=O)c2ccccc2Cl)nn1 | 5.20 | 12 | 25 | – | –
17 | C=CCn1cc(CN(C2=CC(=O)c3ccccc3C2=O)c2ccccc2)nn1 | 4.59 | 55.4 | 100 | – | –
18 | Cc1ccc(N(Cc2cn(Cc3ccccc3)nn2)C2=CC(=O)c3ccccc3C2=O)cc1 | 4.77 | 38.9 | 50 | – | –
19 | O=C1C=C(N(Cc2cn(Cc3ccccc3)nn2)c2ccc(Br)cc2)C(=O)c2ccccc21 | 4.54 | 47.9 | 100 | – | –
20 | O=C1C=C(N(Cc2cn(Cc3ccccc3)nn2)c2ccc(Cl)cc2)C(=O)c2ccccc21 | 5.59 | 15.1 | 25 | – | –
21 | COc1cccc(N(Cc2cn(Cc3ccccc3)nn2)C2=CC(=O)c3ccccc3C2=O)c1 | 4.60 | 36.4 | 50 | – | –
22 | O=C1C=C(N(Cc2cn(Cc3ccccc3)nn2)c2ccccc2Cl)C(=O)c2ccccc21 | 4.82 | 44.3 | 50 | – | –

Row | SMILES | pIC50 [1] | IC90 [1] [µM] | MIC [1] [µM] | Ratio IC50 [2] | Ratio IC50 [3]
23 | O=C1C=C(N(Cc2cn(Cc3ccccc3)nn2)c2ccc(Cl)cc2Cl)C(=O)c2ccccc21 | 5.27 | 9.97 | 25 | – | –
24 | Cc1ccc(N(Cc2cn(CC(=O)c3ccccc3)nn2)C2=CC(=O)c3ccccc3C2=O)cc1 | 4.85 | 28.9 | 50 | – | –
25 | Cc1ccccc1N(Cc1cn(CC(=O)c2ccccc2)nn1)C1=CC(=O)c2ccccc2C1=O | 4.72 | 37.9 | 50 | – | –
26 | O=C(Cn1cc(CN(C2=CC(=O)c3ccccc3C2=O)c2ccc(Cl)cc2Cl)nn1)c1ccccc1 | 4.88 | 27.9 | 50 | – | –
27 | Cc1ccc(N(Cc2cn(C3=CC(=O)c4ccccc4C3=O)nn2)C2=CC(=O)c3ccccc3C2=O)cc1 | 4.54 | 37.7 | 50 | – | –
28 | O=C1C=C(N(Cc2cn(C3=CC(=O)c4ccccc4C3=O)nn2)c2ccc(Br)cc2)C(=O)c2ccccc21 | 4.72 | 46.5 | 50 | – | –
29 | O=C1C=C(N(Cc2cn(C3=CC(=O)c4ccccc4C3=O)nn2)c2ccc(Cl)cc2)C(=O)c2ccccc21 | 5.14 | 16.5 | 25 | – | –
30 | Cc1ccc(N(Cc2cn(-c3cc4ccccc4oc3=N)nn2)C2=CC(=O)c3ccccc3C2=O)cc1 | 4.62 | 47.6 | 50 | – | –
31 | N=c1oc2ccccc2cc1-n1cc(CN(C2=CC(=O)c3ccccc3C2=O)c2ccc(F)cc2)nn1 | 5.07 | 17.7 | 25 | – | –
32 | COc1cccc(N(Cc2cn(-c3cc4ccccc4oc3=N)nn2)C2=CC(=O)c3ccccc3C2=O)c1 | 4.73 | 37.7 | 50 | – | –
33 | N=c1oc2ccccc2cc1-n1cc(CN(C2=CC(=O)c3ccccc3C2=O)c2ccccc2Cl)nn1 | 4.57 | 36.5 | 50 | – | –
34 | Cc1ccc(N(Cc2cn(-c3cc4ccccc4oc3=N)nn2)C2=CC(=O)c3ccccc3C2=O)c(C)c1 | 4.67 | 55.1 | 100 | – | –
35 | Cc1ccc(N(Cc2cn(-c3cc4cc(Br)ccc4oc3=N)nn2)C2=CC(=O)c3ccccc3C2=O)cc1 | 4.66 | 44.6 | 100 | – | –
36 | N=c1oc2ccc(Cl)cc2cc1-n1cc(CN(C2=CC(=O)c3ccccc3C2=O)c2ccc(F)cc2)nn1 | 5.50 | 9.86 | 25 | – | –
37 | Cc1ccc2oc(=N)c(-n3cc(CN(C4=CC(=O)c5ccccc5C4=O)c4ccccc4)nn3)cc2c1 | 4.73 | 27.7 | 50 | – | –
38 | O=C1C=C(N(Cc2cn(Cc3ccccc3)nn2)c2ccc(C(F)(F)F)cc2)C(=O)c2ccccc21 | 5.73 | 4.6 | 10 | 6 | 20
39 | NCC[C@H](O)C(=O)N[C@@H]1C[C@H](N)[C@@H](O[C@H]2O[C@H](CN)[C@@H](O)[C@H](O)[C@H]2O)[C@H](O)[C@H]1O[C@H]1O[C@H](CO)[C@@H](O)[C@H](N)[C@H]1O [AMIKACIN] | – | 0.08 | 0.16 | – | –
40 | N[C@@H]1CONC1=O [CYCLOSERINE] | – | – | 25 | – | –
41 | CC[C@@H](CO)NCCN[C@@H](CC)CO [ETHAMBUTOL] | > 5.81 | – | 12.5 | – | –
42 | NNC(=O)c1ccncc1 [ISONIAZID] | – | 0.29 | 0.31 | – | –
43 | CCc1nc(N)nc(N)c1-c1ccc(Cl)cc1 [PYRIMETHAMINE] | 4.43 | 75 | 100 | – | –
